Patent publication US7566712B2, “Biaryl piperazinyl-pyridine analogues” (Neurogen Corporation, priority 2003, dated 2009)

The molecules below were run against T1, human capsaicin receptor (Homo sapiens, UniProt Q8NER1) (assay: Calcium mobilization assay, determination of antagonist activity (Example 6)). Conditions: Table II; IC50 determined as described in Example 6.
T1 construct: pBK-CMV expression construct encoding the full length human capsaicin receptor; expressed in transfected cells
T1 sequence (Q8NER1 whole entry): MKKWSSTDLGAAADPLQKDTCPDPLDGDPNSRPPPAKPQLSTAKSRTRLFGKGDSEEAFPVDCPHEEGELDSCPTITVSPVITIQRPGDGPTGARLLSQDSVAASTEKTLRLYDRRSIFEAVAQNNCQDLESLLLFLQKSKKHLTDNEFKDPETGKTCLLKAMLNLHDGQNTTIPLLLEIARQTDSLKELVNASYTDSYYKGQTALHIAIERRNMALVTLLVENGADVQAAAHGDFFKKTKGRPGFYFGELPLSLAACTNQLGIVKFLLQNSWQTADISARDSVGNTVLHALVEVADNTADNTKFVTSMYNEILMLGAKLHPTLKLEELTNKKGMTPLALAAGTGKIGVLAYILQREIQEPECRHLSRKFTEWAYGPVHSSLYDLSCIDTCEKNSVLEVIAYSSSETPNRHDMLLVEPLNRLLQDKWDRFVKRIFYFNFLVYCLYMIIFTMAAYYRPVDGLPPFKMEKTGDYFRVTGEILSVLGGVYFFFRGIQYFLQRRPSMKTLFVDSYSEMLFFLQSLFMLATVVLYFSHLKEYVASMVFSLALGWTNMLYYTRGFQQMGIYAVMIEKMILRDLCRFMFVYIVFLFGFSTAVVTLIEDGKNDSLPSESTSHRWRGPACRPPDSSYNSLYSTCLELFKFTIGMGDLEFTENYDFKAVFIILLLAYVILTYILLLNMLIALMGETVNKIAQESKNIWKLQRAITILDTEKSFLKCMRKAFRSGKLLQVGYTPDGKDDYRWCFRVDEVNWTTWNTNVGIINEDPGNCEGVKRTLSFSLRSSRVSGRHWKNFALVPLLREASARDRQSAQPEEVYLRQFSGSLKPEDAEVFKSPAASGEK
Type: cell-based
Outline: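 Antagonism measured as inhibition of capsaicin-evoked (final concentration = EC50, from an 8-point 1 nM–3 μM curve) Fluo-3 calcium signal in stable hVR1-HEK293 cells. Test compounds at 1–5 μM final, 0.5–6 h dark preincubation at room temperature. IC50 = concentration giving 50% reduction versus agonist-only response.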
Work on `C=CCN1CCN(c2nc(-c3cccc(Cl)c3)nc(N3CCN(c4ncccc4C(F)(F)F)CC3)n2)CC1` [Example 441, 2-(4-allylpiperazin-1-yl)-4-(3-chlorophenyl)-6-{4-[3-(trifluoromethyl)pyridin-2-yl]piperazin-1-yl}-1,3,5-triazine] yielded an IC50 of at most 1000 nM.
Molecule `C[C@@H]1CN(c2ncccc2C#N)CCN1c1cc(-c2ccc(C(C)(C)C)cc2)nc(N2CCOCC2)n1` [Example 518, 2-{(3R)-4-[6-(4-tert-butylphenyl)-2-morpholin-4-ylpyrimidin-4-yl]-3-methylpiperazin-1-yl}nicotinonitrile] has an IC50 of at most 1000 nM.
In the case of `C[C@@H]1CN(c2ncccc2C(F)(F)F)CCN1c1cc(-c2cccc(OC(F)(F)F)c2)nc(N2CCOCC2)n1` [Example 534, 4-{4-{(2R)-2-methyl-4-[3-(trifluoromethyl)pyridin-2-yl]piperazin-1-yl}-6-[3-(trifluoromethoxy)phenyl]pyrimidin-2-yl}morpholine], the IC50 is reported as at most 1000 nM.
Molecule `CCCc1ccc(-c2cc(N3CCN(c4ncccc4Cl)C[C@H]3C)nc(N3CCOCC3)n2)cc1` [Example 513, 4-[4-[(2R)-4-(3-chloropyridin-2-yl)-2-methylpiperazin-1-yl]-6-(4-propylphenyl)pyrimidin-2-yl]morpholine] has an IC50 of at most 1000 nM.
Molecule `Cc1cccnc1N1CCN(c2cc(-c3cccc(C(C)C)c3)nc(N3CCOCC3)n2)[C@H](C)C1` [Example 500, 4-{4-(3-isopropylphenyl)-6-[(2R)-2-methyl-4-(3-methylpyridin-2-yl)piperazin-1-yl]pyrimidin-2-yl}morpholine] has an IC50 of at most 1000 nM.
Molecule `Cc1cccnc1N1CCN(c2cc(-c3ccc(C(C)C)cc3)nc(N3CCOCC3)n2)[C@H](C)C1` [Example 504, 4-{4-(4-isopropylphenyl)-6-[(2R)-2-methyl-4-(3-methylpyridin-2-yl)piperazin-1-yl]pyrimidin-2-yl}morpholine] has an IC50 of at most 1000 nM.

Same assay, conditions: Table II; IC50 determined as described in Example 6 (antagonist activity, calcium mobilization)
Work on `Cc1ccc(-c2cc(N3CCN(c4nccnc4Cl)C[C@H]3C)nc(N3CCC[C@@H]3C)n2)cc1F` [Example 992, 4-[(2R)-4-(3-chloropyrazin-2-yl)-2-methylpiperazin-1-yl]-6-(3-fluoro-4-methylphenyl)-2-[(2S)-2-methylpyrrolidin-1-yl]pyrimidine] yielded an IC50 of at most 1000 nM.
In the case of `Cc1ccc(-c2cc(N3CCN(c4ncccc4Cl)C[C@H]3C)nc(N3CCOCC3)n2)cc1Cl` [Example 998, 4-{4-(3-chloro-4-methylphenyl)-6-[(2R)-4-(3-chloropyridin-2-yl)-2-methylpiperazin-1-yl]pyrimidin-2-yl}morpholine], the IC50 is reported as at most 1000 nM.
`CC1CCCN1c1nc(-c2ccc(F)c(Cl)c2)cc(N2CCN(c3ncncc3Cl)CC2)n1` (stereo not drawn) [Example 1010, 4-(3-chloro-4-fluorophenyl)-6-[4-(5-chloropyrimidin-4-yl)piperazin-1-yl]-2-(2-methylpyrrolidin-1-yl)pyrimidine] showed an IC50 of at most 1000 nM.

Same assay, conditions: Table II; determined as described in Example 6 (antagonist activity); "*" = 1 micromolar or less
`C[C@@H]1CN(c2nccnc2Cl)CCN1c1nc(Cl)cc(-c2ccc(F)c(Cl)c2)n1` [Example 906, 4-chloro-6-(3-ohloro-4-fluorophenyl)-2-[4-(3-chloropyrazin-2-yl)-2-methylpiperazin-1-yl]pyrimidine] gave an IC50 of at most 1000 nM.
With `COc1ncc(Cl)c(N2CCN(c3nc(-c4ccc(F)cc4)cc(N4CCC[C@H]4C)n3)[C@H](C)C2)n1` [Example 968, 5-chloro-4-((3R)-4-{4-(4-fluorophenyl)-6-[(2R)-2-methylpyrrolidin-1-yl]pyrimidin-2-yl}-3-methylpiperazin-1-yl)-2-methoxypyrimidine] the IC50 was at most 1000 nM.
Molecule `Cc1ccc(C)n1-c1nc(-c2ccc(F)cc2)cc(N2CCN(c3ncccc3Cl)C[C@H]2C)n1` [Example 873, 4-((2R)-4-(3-chloropyridin-2-yl)-2-methylpiperazin-1-yl]-2-(2,5-dimethyl-1H-pyrrol-1-yl)-6-(4-fluorophenyl)pyrimidine] has an IC50 of at most 1000 nM.
With `CC1CCCN1c1nc(-c2ccc(-c3ncon3)cc2)cc(N2CCN(c3ncccc3Cl)C[C@H]2C)n1` (stereo partly drawn) [Example 865, 4-[4-(3-chloropyridin-2-yl)-2-methylpiperazin-1-yl]-2-(2-methylpyrrolidin-1-yl)-6-[4-(1,2,4-oxadiazol-3-yl)phenyl]pyrimidine] the IC50 was at most 1000 nM.
With `CC1CCCN1c1nc(-c2ccc3c(c2)CN(C)CC3(C)C)cc(N2CCN(c3ncccc3C(F)(F)F)CC2)n1` (stereo not drawn) [Example 836, 2,4,4-trimethyl-7-(2-(2-methylpyrrolidin-1-yl)-6-{4-[3-(trifluoromethyl)pyridin-2-yl]piperazin-1-yl}pyrimidin-4-yl)-1,2,3,4-tetrahydroisoquinoline] the IC50 was at most 1000 nM.
`C[C@@H]1CN(c2ncccc2Cl)CCN1c1cc(-c2ccc(F)c(Cl)c2)nc(Cl)n1` (stereo in doubt) [Example 827, 2-chloro-4-(3-chloro-4-fluorophenyl)-6-[4-(3-chloropyridin-2-yl)-2-methylpiperazin-1-yl]pyrimidine] was tested, and the IC50 was at most 1000 nM.
Molecule `CC1CCN1c1nc(-c2cncc(Cl)c2)cc(N2CCN(c3ncccc3Cl)C[C@H]2C)n1` (stereo partly drawn) [Example 855, 4-(5-chloropyridin-3-yl)-6-[4-(3-chloropyridin-2-yl)-2-methylpiperazin-1-yl]-2-(2-methylazetidin-1-yl)pyrimidine] has an IC50 of at most 1000 nM.
Molecule `CCCN1CCC(c2nc(-c3ccc(F)c(Cl)c3)cc(N3CCN(c4ncccc4C(F)(F)F)CC3)n2)CC1` [Example 872, 4-(3-chloro-4-fluorophenyl)-2-(1-propylpiperidin-4-yl)-6-{4-[3-(trifluoromethyl)pyridin-2-yl]piperazin-1-yl}pyrimidine] has an IC50 of at most 1000 nM.
`Cc1cc(-c2cc(N3CCN(c4nccnc4Cl)C[C@H]3C)nc(Cl)n2)ccc1F` [Example 912, 2-chloro-4-[(2R)-4-(3-chloropyrazin-2-yl)-2-methylpiperazin-1-yl]-6-(4-fluoro-3-methylphenyl)pyrimidine] showed an IC50 of at most 1000 nM.
`CCOC(=O)C1CCN(c2nc(-c3ccc(F)c(Cl)c3)cc(N3CCN(c4ncccc4C(F)(F)F)CC3)n2)CC1` [Example 797, ethyl 1-(4-(3-chloro-4-fluorophenyl)-6-{4-[3-(trifluoromethyl)pyridin-2-yl]piperazin-1-yl}pyrimidin-2-yl)piperidine-4-carboxylate] showed an IC50 of at most 1000 nM.
For `Cc1cc(-c2cc(N3CCN(c4ncccc4Cl)C[C@@H]3C)nc(N3CCCC3C)n2)ccc1F` (stereo in doubt) [Example 903, 4-[4-(3-chloropyridin-2-yl)-2-methylpiperazin-1-yl]-6-(4-fluoro-3-methylphenyl)-2-(2-methylpyrrolidin-1-yl)pyrimidine], the IC50 was at most 1000 nM.
For `CCCN1CCN(c2nc(-c3ccc(F)c(Cl)c3)cc(N3CCN(c4ncccc4C(F)(F)F)CC3)n2)C(=O)C1` [Example 885, 1-(4-(3-chloro-4-fluorophenyl)-6-{4-[3-(trifluoromethyl)pyridin-2-yl]piperazin-1-yl}pyrimidin-2-yl)-4-propylpiperazin-2-one], the IC50 was at most 1000 nM.
For `COc1ccc(Cl)c(N2CCN(c3cc(-c4ccc(F)c(Cl)c4)nc(N4CCCC4C)n3)CC2)n1` (stereo not drawn) [Example 918, 4-(3-chloro-4-fluorophenyl)-6-[4-(3-chloro-6-methoxypyridin-2-yl)piperazin-1-yl]-2-(2-methylpyrrolidin-1-yl)pyrimidine], the IC50 was at most 1000 nM.

Same assay, conditions: determined as described in Example 6 (calcium mobilization, antagonist activity); Table II
`CN(C)C(=O)[C@@H]1CCCN1c1nc(-c2ccc(F)c(Cl)c2)cc(N2CCN(c3ncccc3C(F)(F)F)CC2)n1` [Example 711, 1-(4-(3-chloro-4-fluorophenyl)-6-{4-[3-(trifluoromethyl)pyridin-2-yl]piperazin-1-yl}pyrimidin-2-yl)-N,N-dimethyl-L-prolinamide] gave an IC50 of at most 1000 nM.
In the case of `CC1(C)CCCN(c2nc(-c3ccc(F)c(Cl)c3)cc(N3CCN(c4ncccc4C(F)(F)F)CC3)n2)C1` [Example 612, 4-(3-chloro-4-fluorophenyl)-2-(3,3-dimethylpiperidin-1-yl)-6-{4-[3-(trifluoromethyl)pyridin-2-yl]piperazin-1-yl}pyrimidine], the IC50 is reported as at most 1000 nM.
In the case of `Cc1cc(-c2cc(N3CCN(c4ncccc4Cl)C[C@H]3C)nc(N3CCCC3)n2)ccc1F` [Example 718, 4-[(2R)-4-(3-chloropyridin-2-yl)-2-methylpiperazin-1-yl]-6-(4-fluoro-3-methylphenyl)-2-pyrrolidin-1-ylpyrimidine], the IC50 is reported as at most 1000 nM.
`Fc1ccc(-c2cc(N3CCN(c4ncccc4C(F)(F)F)CC3)nc(N3CCCC3)n2)cc1Cl` [Example 603, 4-(3-chloro-4-fluorophenyl)-2-pyrrolidin-1-yl-6-{4-[3-(trifluoromethyl)pyridin-2-yl]piperazin-1-yl}pyrimidine] showed an IC50 of at most 1000 nM.
`COC[C@H]1CCCN1c1nc(-c2ccc(F)c(Cl)c2)cc(N2CCN(c3ncccc3Cl)C[C@H]2C)n1` [Example 733, 4-(3-chloro-4-fluorophenyl)-6-[(2R)-4-(3-chloropyridin-2-yl)-2-methylpiperazin-1-yl]-2-[(2R)-2-(methoxymethyl)pyrrolidin-1-yl]pyrimidine] gave an IC50 of at most 1000 nM.
`FC(F)(F)c1cccnc1N1CCN(c2cc(-c3ccccc3)nc(N3CCOCC3)n2)CC1` [Example 574, 4-(4-phenyl-6-{4-[3-(trifluoromethyl)pyridin-2-yl]piperazin-1-yl}pyrimidin-2-yl)morpholine] showed an IC50 of at most 1000 nM.
`CC1CN(C)CCN1c1nc(-c2ccc(F)c(Cl)c2)cc(N2CCN(c3ncccc3C(F)(F)F)CC2)n1` (stereo not drawn) [Example 630, 4-(3-chloro-4-fluorophenyl)-2-(2,4-dimethylpiperazin-1-yl)-6-{4-[3-(trifluoromethyl)pyridin-2-yl]piperazin-1-yl}pyrimidine] showed an IC50 of at most 1000 nM.
`O=C1CCCN1c1nc(-c2ccc(F)c(Cl)c2)cc(N2CCN(c3ncccc3C(F)(F)F)CC2)n1` [Example 668, 1-(4-(3-chloro-4-fluorophenyl)-6-{4-[3-(trifluoromethyl)pyridin-2-yl]piperazin-1-yl}pyrimidin-2-yl)pyrrolidin-2-one] was tested, and the IC50 was at most 1000 nM.
